# In patent publication US9539312B2 (UNIVERSIDAD NACIONAL AUTÓNOMA DE MÉXICO, priority 2012, dated 2017):
# Where two headings read alike, the source gives them in different places. Where no end group is shown, it is not given here.
# T1: CETP (Homo sapiens, UniProt P11597)
# T1 construct: host or cells: trial subjects' plasma (not described)
# T1 sequence (P11597 18-493): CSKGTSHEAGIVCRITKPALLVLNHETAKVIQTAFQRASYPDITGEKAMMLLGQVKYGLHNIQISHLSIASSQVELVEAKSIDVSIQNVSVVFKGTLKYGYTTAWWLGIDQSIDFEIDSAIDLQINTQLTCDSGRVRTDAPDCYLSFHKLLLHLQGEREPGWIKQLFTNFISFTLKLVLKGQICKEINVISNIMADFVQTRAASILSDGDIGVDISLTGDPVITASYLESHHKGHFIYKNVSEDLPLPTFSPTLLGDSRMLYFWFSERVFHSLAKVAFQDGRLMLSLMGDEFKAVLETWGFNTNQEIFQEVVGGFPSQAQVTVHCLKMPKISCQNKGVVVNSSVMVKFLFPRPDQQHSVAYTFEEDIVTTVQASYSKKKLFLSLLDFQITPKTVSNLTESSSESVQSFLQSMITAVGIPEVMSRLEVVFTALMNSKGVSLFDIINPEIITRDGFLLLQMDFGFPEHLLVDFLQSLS
# B1: CETP: proatherogenic hydrophobic glycoprotein that transfers cholesteryl esters and triglycerides among lipoproteins (protein, UniProt P11597 18-493, looked up)
# Cholesteryl ester transfer …: CSKGTSHEAGIVCRITKPALLVLNHETAKVIQTAFQRASYPDITGEKAMMLLGQVKYGLHNIQISHLSIASSQVELVEAKSIDVSIQNVSVVFKGTLKYGYTTAWWLGIDQSIDFEIDSAIDLQINTQLTCDSGRVRTDAPDCYLSFHKLLLHLQGEREPGWIKQLFTNFISFTLKLVLKGQICKEINVISNIMADFVQTRAASILSDGDIGVDISLTGDPVITASYLESHHKGHFIYKNVSEDLPLPTFSPTLLGDSRMLYFWFSERVFHSLAKVAFQDGRLMLSLMGDEFKAVLETWGFNTNQEIFQEVVGGFPSQAQVTVHCLKMPKISCQNKGVVVNSSVMVKFLFPRPDQQHSVAYTFEEDIVTTVQASYSKKKLFLSLLDFQITPKTVSNLTESSSESVQSFLQSMITAVGIPEVMSRLEVVFTALMNSKGVSLFDIINPEIITRDGFLLLQMDFGFPEHLLVDFLQSLS
# Assays:
# [1] = phase II, cited from earlier work
# [2] = phase III, treatment group receiving combination with atorvastatin; cited from earlier work
# [3] = target: T1, CETP; details: phase II, group with the highest dose; cited from earlier work
# [4] = pH 9.5
# [5] = target: C-terminus peptide of CETP (Homo sapiens, UniProt P11597)
# [6] = target: 10 nm-diameter nascent discoid HDL particles; details: cited from earlier work
molecule,measurement,setting,value
COc1cc(F)c(C(C)C)cc1-c1ccc(C(F)(F)F)cc1CN1C(=O)O[C@H](c2cc(C(F)(F)F)cc(C(F)(F)F)c2)[C@@H]1C [Anacetrapib],blood pressure,[1]; all cohorts,without the corresponding increase in blood pressure
same,"increase in HDL, average",[1]; dose 10 mg,44%
same,"increase in HDL, average",[1]; dose 40 mg,86%
same,"increase in HDL, average",[1]; dose 150 mg,139%
same,"increase in HDL, average",[1]; dose 300 mg,133%
CCOC(=O)N1c2ccc(C(F)(F)F)cc2[C@@H](N(Cc2cc(C(F)(F)F)cc(C(F)(F)F)c2)C(=O)OC)C[C@H]1CC [Torcetrapib],mortality and cardiovascular events,[2],cases of mortality and cardiovascular events
CCC(CC)CC1(C(=O)Nc2ccccc2SC(=O)C(C)C)CCCCC1 [Dalcetrapib],CETP activity decreased,[3],36%
same,HDL cholesterol increased,[3],34%
CHLLVDFLQSLS [Y-helix],solubility and monomeric state of peptide,[4],allows solubility and keeps the peptide in monomeric state
"CCCCCCCCCCCC(=O)OC[C@@H](O)COP(=O)([O-])OCC[N+](C)(C)C [lysophosphatidylcholine (C12), 1-Lauril-2-Hydroxi-snglycero 3 phosphocholine]",secondary structure of the antigen peptide,[5],favored the presentation of the α-helix structure
B1,Kd,[6],20 to 120 nM
